The source of these data is ChEMBL document CHEMBL1145710, “Antineoplastic agents. 362. Isolation and X-ray crystal structure of dibromophakellstatin from the Indian ocean sponge Phakellia mauritiana” (1997).

Common to all, as to format: functional
The test system of test [1] is SK-MEL-5. Briefly: Cytotoxicity against human SK-MEL-5 cells by SRB assay. The settings on record: read-out: ED50 (the source's name). (The SRB assay estimates cell density from bound dye.)
The subject of test [2] is SF-295. Briefly: Cytotoxicity against human SF295 cells by SRB assay. The settings on record: read-out: ED50 (the source's name).
For test [3], the system named is KM-20L2. Briefly: Cytotoxicity against human KM20L2 cells by SRB assay. Particulars: read-out: ED50 (the source's name).
Test [4] deals with NCI-H460. Briefly: Cytotoxicity against human H460 cells by SRB assay. Particulars: read-out: ED50 (the source's name).
In test [5] the test system is A498. Briefly: Cytotoxicity against human A498 cells by SRB assay. The settings on record: read-out: ED50 (the source's name).
Test [6] deals with OVCAR-3. Briefly: Cytotoxicity against human OVCAR-3 cells by SRB assay. Particulars: read-out: ED50 (the source's name).
For test [7], the system named is 786-0. Briefly: Cytotoxicity against human 786-0 cells by SRB assay.
Test [8] has as its system U-251. Briefly: Cytotoxicity against human U251 cells by SRB assay.
For test [9], the system named is PC-3. Briefly: Cytotoxicity against human PC3 cells by SRB assay.
The test system of test [10] is MDA-MB-231. Briefly: Cytotoxicity against human MDA-MB-231 cells by SRB assay.
In test [11] the test system is OVCAR-5. Briefly: Cytotoxicity against human OVCAR5 cells by SRB assay.
For test [12], the system named is A549. Briefly: Cytotoxicity against human A549 cells by SRB assay.
Test [13] deals with HT-29. Briefly: Cytotoxicity against human HT-29 cells by SRB assay.
The test system of test [14] is COLO 205. Briefly: Cytotoxicity against human COLO205 cells by SRB assay.
The test system of test [15] is HCT-116. Briefly: Cytotoxicity against human HCT116 cells by SRB assay.
Test [16] relates to OVCAR-8. Briefly: Cytotoxicity against human OVCAR8 cells by SRB assay.
Test [17] concerns SNB-75. Briefly: Cytotoxicity against human SNB75 cells by SRB assay.
Test [18] deals with NCI-H522. Briefly: Cytotoxicity against human NCI-H522 cells by SRB assay.
The test system of test [19] is NCI-H226. Briefly: Cytotoxicity against human NCI-H226 cells by SRB assay.
Test [20] deals with SF-539. Briefly: Cytotoxicity against human SF539 cells by SRB assay.
Test [21] can be described thus: Cytotoxicity against human Hs 578T cells by SRB assay.
Test [22] concerns K562. Briefly: Cytotoxicity against human K562 cells by SRB assay.
For test [23], the system named is HOP-92. Briefly: Cytotoxicity against human HOP92 cells by SRB assay.
Test [24] can be described thus: Cytotoxicity against human MCF7/ADR cells by SRB assay. The settings on record: NCI/ADR-RES.

Values after ≈ are worked out from the molar mass of the structure shown.

As to `NC1=N/C(=C2/CCNC(=O)c3[nH]ccc32)C(=O)N1` [DEBROMOHYMENIALDISINE], the EC50 in test [1] turned out to be 5.7 µg/mL (≈ 23.2 µM); in test [2] it was 38.9 µg/mL (≈ 159 µM); in test [3], 8.5 µg/mL (≈ 34.7 µM); in [4] it was 42 µg/mL (≈ 171 µM); in test [5], 24.7 µg/mL (≈ 101 µM); in test [6], 1.8 µg/mL (≈ 7.34 µM).
As for `NC1=N[C@]23CCCN2C(=O)c2cc(Br)c(Br)n2[C@@H]3N1` [DIBROMOPHAKELLIN], the EC50 in test [1] was found to be 17 µg/mL (≈ 43.7 µM); in test [2] it was 18.8 µg/mL (≈ 48.3 µM); in test [3], 20.1 µg/mL (≈ 51.7 µM); in test [4] it was 22 µg/mL (≈ 56.5 µM); in test [5], 17.8 µg/mL (≈ 45.8 µM); in [6], 15.7 µg/mL (≈ 40.4 µM).
Usually GI50 stands for the concentration that inhibits growth by half. As for `O=C1N[C@H]2n3c(cc(Br)c3Br)C(=O)N3CCC[C@]23N1` [DIBROMOPHAKELLSTATIN], the EC50 was found to be 0.11 µg/mL (≈ 0.282 µM) in [1]; 1.5 µg/mL (≈ 3.85 µM) in [2]; 0.11 µg/mL (≈ 0.282 µM) in [3]; 0.62 µg/mL (≈ 1.59 µM) in test [4]; 0.21 µg/mL (≈ 0.538 µM) in test [5]; 0.46 µg/mL (≈ 1.18 µM) in test [6]. Moreover, the 50% growth inhibitory concentration (GI50) in test [7] is 603 nM; in test [8], 589 nM; in test [9], 708 nM; in [10], 724 nM; in test [11] it was 676 nM; in test [12], 676 nM. The concentration for 50% growth inhibition (GI50) in test [13] is 631 nM; in test [14] it was 794 nM; in test [15], 575 nM; in test [16] it was 120 nM; in test [17] it was 776 nM; in [18], 240 nM. The GI50 in test [19] was 871 nM; in test [20], 617 nM; in test [21] it was 871 nM; in test [22], 692 nM; in test [23] it was 490 nM; in test [24] it was 525 nM.
